Reference: patent US20140162942A1, “INHIBITION OF CYP3A DRUG METABOLISM” (priority 2010, published 2014)
Read-outs that look alike come from different tables or passages of the source.

How the values were obtained:
CYP3A4/5 = CYP3A4/5 inhibition, testosterone 6β-hydroxylation in human liver microsomes; type: in vitro ADME; conditions: for Potential for Time-Dep. Inhibition: comparison with and without 30-minute pre-incubation; for IC50 at 5 min / inhibition at 5 min, 100 µM: human, pooled human liver microsomes, pH 7.4, probe testosterone (6β-hydroxylation)
Method: (§1) The basis for many of the following incubation conditions is described in the following references: Madan, et al., 2002,^(1) Huang, 2004,^(3) Ogilvie, et al., 2006,^(6) Pearce, et al., 1996,^(7) Tucker, et al., 2001,^(4) and Walsky and Obach, 2004.^(5) In general, incubations were conducted at approximately 37° C. in 400-μL incubation mixtures (target pH 7.4) containing high purity water, potassium phosphate buffer (50 mM), MgCl2 (3 mM), EDTA (1 mM), an NADPH-generating system [always the mixture of the following: NADP (1 mM), glucose-6-phosphate (5 mM), glucose-6-phosphate dehydrogenase (1 Unit/mL)], and marker substrate at the final concentrations indicated. Pooled human liver microsomes (from sixteen individuals) were used as the source of enzymes (Section 1.3.1.2). The concentrations of marker substrates were based on the Km and Vmax data that were determined previously (data not shown).
(§2) Due to the possibility that boceprevir may bind to microsomal protein or lipids, an attempt was made to design these experiments such that, in as many cases as possible, the microsomal protein, incubation time, and phosphate buffer concentration were 0.1 mg/mL, 5 minutes and 50 mM, respectively, for assays performed with human liver microsomes (Table 1). […] Since it is not imperative that the concentration of marker substrates be exactly equal to Km, the marker substrate concentrations were rounded up or down, as applicable, to simplify the experimental design (data not shown). […] Thus, the final incubation concentration of phenacetin was 60 μM (Table 1).
(§3) The ability of boceprevir to inhibit the CYP enzymes listed in Section 1.2.1 was investigated with a pool of sixteen individual human liver microsomal samples at the concentrations indicated in Table 1. Aliquots of the stock and/or working solutions of boceprevir were manually added to buffer mixtures containing the components described in Section 1.3.21. Incubation mixtures were prepared in bulk to obviate the need for directly pipetting very small volumes (i.e., 1 μL or less). Incubations containing no boceprevir (0 μM) contained the vehicle used to dissolve boceprevir (i.e., 1% methanol).
(§4) The Tecan liquid handling system conducted all remaining incubation steps, with the exception of the centrifugation. Aliquots of the buffer mixtures were then automatically added to 96-well plates at the appropriate locations in duplicate. Aliquots of a substrate working solution were added to the 96-well plates, prior to initiating reactions, to give the final concentrations indicated in Table 1. Reactions were initiated with the addition of an aliquot of an NADPH-generating system. Reactions were automatically terminated at approximately 5 minutes, by the addition of the appropriate internal standard (Table 5) and stop reagent; acetonitrile. Precipitated protein was removed by centrifugation (920 g for 10 minutes at 10° C.). Standards and quality control samples were similarly prepared with the addition of authentic metabolite standards.
(§5) To examine its ability to act as a time-dependent inhibitor, boceprevir (at the same concentrations used to evaluate direct inhibition) was pre-incubated at 37±1° C., in duplicate, with human liver microsomes and an NADPH-generating system for approximately 30 minutes. This pre-incubation allowed for the generation of intermediates that could inhibit human CYP enzymes. The pre-incubations were initiated with the addition of an aliquot of an NADPH-generating system. […] Reactions were automatically terminated, at approximately 5 minutes, by the addition of the appropriate internal standard (Table 5) and stop reagent; acetonitrile. Precipitated protein was removed by centrifugation (920 g for 10 minutes at 10° C.). Incubations containing no boceprevir (0 μM) and incubations that contained boceprevir but were not pre-incubated, served as negative controls.

CYP2A6 = molecular target: T1, CYP2A6 (Homo sapiens, UniProt P11509); assay: CYP2A6 inhibition, coumarin 7-hydroxylation in human liver microsomes; type: in vitro ADME; conditions: for Potential for Time-Dep. Inhibition: comparison with and without 30-minute pre-incubation; for inhibition at 5 min, 100 µM: human, pH 7.4, probe coumarin (7-hydroxylation)
T1 construct: Pooled human liver microsomes (from sixteen individuals) were used as the source of enzymes; tissue XenoTech, LLC; host or cells: human liver microsomes, pool of sixteen donors
T1 sequence (P11509 1-494): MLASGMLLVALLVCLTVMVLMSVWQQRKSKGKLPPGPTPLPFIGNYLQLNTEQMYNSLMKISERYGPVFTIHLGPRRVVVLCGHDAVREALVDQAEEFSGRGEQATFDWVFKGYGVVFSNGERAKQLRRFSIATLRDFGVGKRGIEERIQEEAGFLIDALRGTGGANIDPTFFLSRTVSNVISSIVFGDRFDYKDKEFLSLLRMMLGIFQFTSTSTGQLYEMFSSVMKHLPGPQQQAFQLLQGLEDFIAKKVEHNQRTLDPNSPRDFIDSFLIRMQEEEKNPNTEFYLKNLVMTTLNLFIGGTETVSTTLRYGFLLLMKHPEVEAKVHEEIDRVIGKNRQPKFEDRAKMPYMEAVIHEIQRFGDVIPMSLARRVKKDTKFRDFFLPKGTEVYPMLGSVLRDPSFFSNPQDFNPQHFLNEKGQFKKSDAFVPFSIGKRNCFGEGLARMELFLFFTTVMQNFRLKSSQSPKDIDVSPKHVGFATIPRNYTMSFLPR
Method: as §1, §2, §3, §4, §5

[1] = time-dependent inhibition, 30-minute pre-incubation

In the case of `CC(C)(C)NC(=O)NC(C(=O)N1CC2C([C@H]1C(=O)NC(CC1CCC1)C(=O)C(N)=O)C2(C)C)C(C)(C)C` (stereo partly drawn) [Boceprevir, (1R,2S,5S)—N-[(2Ξ)-4-amino-1-cyclobutyl-3,4-dioxobutan-2-yl]-3-{(2S)-2-[(tert-butylcarbamoyl)amino]-3,3-dimethylbutanoyl}-6,6-dimethyl-3-azabicyclo[3.1.0]hexane-2-carboxamide], the “Potential for Time-Dep. Inhibition” value (CYP3A4/5) is reported as “yes^c”, the “Potential for Time-Dep. Inhibition” value (CYP3A4/5; listed as boceprevir) is reported as “caused time-dependent inhibition” and the IC50 at 5 min (CYP3A4/5; direct inhibition, zero-minute pre-incubation) is reported as over 100 µM. It also gave an inhibition at 5 min, 100 µM (CYP3A4/5; direct inhibition, zero-minute pre-incubation, read-out: Max. Inhib. at 100 μM) of 41%, an IC50 at 5 min (CYP3A4/5; [1]) of 2.3 µM and an inhibition at 5 min, 100 µM (CYP3A4/5; time-dependent inhibition, 30-minute pre-incubation, read-out: Maximum Inhibition at 100 μM) of 95%. The “Potential for Time-Dep. Inhibition” value (CYP2A6) was “little or no”, the “Potential for Time-Dep. Inhibition” value (CYP2A6; listed as boceprevir) was “no discernable time-dependent inhibition” and the IC50 (CYP2A6; direct inhibition, zero-minute pre-incubation, pooled human liver microsomes) was over 100 µM. It also gave an inhibition at 5 min, 100 µM (CYP2A6; pooled human liver microsomes, direct inhibition, zero-minute pre-incubation, read-out: Max. Inhib. at 100 μM) of 20%, an inhibition at 5 min, 100 µM (CYP2A6; pooled human liver microsomes, time-dependent inhibition, 30-minute pre-incubation, read-out: Maximum Inhibition at 100 μM) of 7.8% and an IC50 (CYP2A6; [1]) of over 100 µM.
